Read-outs that look alike come from different tables or passages of the source.
What was measured:
S. aureus = test: MIC against S. aureus strains; assay type: cell-based; settings: Staphylococcus aureus, ATCC29213, 24 h, S. aureus ATCC 29213, 24 h; read-out: MIC (μg/mL) 24 h
[1] = system: Lactobacillus gasseri HM-644; settings: cited from earlier work
[2] = system: Fusobacterium nucleatum HM-992; settings: cited from earlier work
THP-1 cells = test: Lactate dehydrogenase (LDH) cytotoxicity assay; assay type: cell-based, human; settings: Homo sapiens, THP-1, 24 h, read-out: LDH (IC50)
[3] = system: Lactobacillus reuteri HM-102; settings: cited from earlier work
C. difficile ATCC 43255 = settings: cited from earlier work
[4] = system: Bifidobacterium longum HM-846; settings: cited from earlier work
C. difficile strains = settings: cited from earlier work
Eubacterium sp. HM-178 = settings: cited from earlier work
[5] = system: Bacteroides fragilis HM-709; settings: cited from earlier work
[6] = C. difficile strains of Table 4

Oc1ccc(-c2nc(-c3ccc(OC4CCCC4)cc3)no2)cc1 [Compound 2]
1 µg/mL: MIC [4]
2 µg/mL: MIC (S. aureus) | MIC [2] | MIC (C. difficile ATCC 43255; C. difficile ATCC43255) | MIC (C. difficile ATCC 43255; C. difficile ATCC 43255, earlier publication) | MIC (C. difficile ATCC 43255; strain ATCC43255) | IMIC50 (101 strains) (C. difficile strains; 101 C. difficile strains) | MIC (C. difficile strains; C. difficile BAA-1803) | MIC (C. difficile strains; C. difficile BAA-1870) | MIC (C. difficile strains; C. difficile NR49292) | MIC (C. difficile strains; C. difficile NR49294) | MIC (C. difficile strains; C. difficile NR49302) | MIC (C. difficile strains; C. difficile NR49305) | MIC50 (C. difficile strains; [6]) | MIC (C. difficile strains; strain ATCC43598) | MIC (C. difficile strains; strain BAA-1801) | MIC (C. difficile strains; strain BAA-1803) | MIC (C. difficile strains; strain BAA-1804) | MIC (C. difficile strains; strain BAA-1812) | MIC (C. difficile strains; strain BAA-1814) | MIC (C. difficile strains; strain BAA-1870) | MIC (C. difficile strains; strain NR49292) | MIC (C. difficile strains; strain NR49294) | MIC (C. difficile strains; strain NR49302) | MIC (C. difficile strains; strain NR49305) | MIC (C. difficile strains; strain NR-13427) | MIC (C. difficile strains; strain NR-13430) | MIC (C. difficile strains; strain NR-13431) | MIC (C. difficile strains; strain NR-13434) | MIC (C. difficile strains; strain NR-13438) | MIC (C. difficile strains; strain NR-13553) | MIC (C. difficile strains; strain NR-32882) | MIC (C. difficile strains; strain NR-32883) | MIC (C. difficile strains; strain NR-32884) | MIC (C. difficile strains; strain NR-32886) | MIC (C. difficile strains; strain NR-32890) | MIC (C. difficile strains; strain NR-32895) | MIC (C. difficile strains; strain NR-32896) | MIC (C. difficile strains; strain NR-32897) | MIC (C. difficile strains; strain NR-32903) | MIC (C. difficile strains; strain NR-32904) | MIC (C. difficile strains; strain NR-49277) | MIC (C. difficile strains; strain NR-49278) | MIC (C. difficile strains; strain NR-49279) | MIC (C. difficile strains; strain NR-49285) | MIC (C. difficile strains; strain NR-49286) | MIC (C. difficile strains; strain NR-49287) | MIC (C. difficile strains; strain NR-49288) | MIC (C. difficile strains; strain NR-49289) | MIC (C. difficile strains; strain NR-49291) | MIC (C. difficile strains; strain NR-49293) | MIC (C. difficile strains; strain NR-49297) | MIC (C. difficile strains; strain NR-49299) | MIC (C. difficile strains; strain NR-49300) | MIC (C. difficile strains; strain NR-49301) | MIC (C. difficile strains; strain NR-49303) | MIC (C. difficile strains; strain NR-49308) | MIC (C. difficile strains; strain NR-49309) | MIC (C. difficile strains; strain NR-49311) | MIC (C. difficile strains; strain NR-49313) | MIC (C. difficile strains; strain NR-49314) | MIC (C. difficile strains; strain NR-49320) | MIC (C. difficile strains; strain NR-49326) | MIC (C. difficile strains; strain NR-49327) | MIC (C. difficile strains; strain NR-49328) | MIC (C. difficile strains; strain NR-49329) | MIC [5]
18 ± 1 µg/mL: IC50 (THP-1 cells)
4 µg/mL: MIC90 (101 strains) (C. difficile strains; 101 C. difficile strains) | MIC (C. difficile strains; C. difficile 23828, resistant to FDX) | MIC (C. difficile strains; C. difficile 24531, resistant to VAN) | MIC (C. difficile strains; C. difficile 26675, resistant to MTZ) | MIC (C. difficile strains; C. difficile NR49310) | MIC (C. difficile strains; C. difficile NR49318) | MIC90 (C. difficile strains; [6]) | MIC90 (C. difficile strains; C. difficile, reported earlier) | MIC (C. difficile strains; strain HM-88) | MIC (C. difficile strains; strain HM-89) | MIC (C. difficile strains; strain HM-745) | MIC (C. difficile strains; strain HM-746) | MIC (C. difficile strains; strain HM-747) | MIC (C. difficile strains; strain NR49310) | MIC (C. difficile strains; strain NR49318) | MIC (C. difficile strains; strain NR-13428) | MIC (C. difficile strains; strain NR-13429) | MIC (C. difficile strains; strain NR-13433) | MIC (C. difficile strains; strain NR-13435) | MIC (C. difficile strains; strain NR-13436) | MIC (C. difficile strains; strain NR-13437) | MIC (C. difficile strains; strain NR-32885) | MIC (C. difficile strains; strain NR-32887) | MIC (C. difficile strains; strain NR-32888) | MIC (C. difficile strains; strain NR-32889) | MIC (C. difficile strains; strain NR-32891) | MIC (C. difficile strains; strain NR-32892) | MIC (C. difficile strains; strain NR-32900) | MIC (C. difficile strains; strain NR-49280) | MIC (C. difficile strains; strain NR-49281) | MIC (C. difficile strains; strain NR-49282) | MIC (C. difficile strains; strain NR-49283) | MIC (C. difficile strains; strain NR-49284) | MIC (C. difficile strains; strain NR-49290) | MIC (C. difficile strains; strain NR-49295) | MIC (C. difficile strains; strain NR-49296) | MIC (C. difficile strains; strain NR-49298) | MIC (C. difficile strains; strain NR-49304) | MIC (C. difficile strains; strain NR-49306) | MIC (C. difficile strains; strain NR-49307) | MIC (C. difficile strains; strain NR-49312) | MIC (C. difficile strains; strain NR-49315) | MIC (C. difficile strains; strain NR-49316) | MIC (C. difficile strains; strain NR-49317) | MIC (C. difficile strains; strain NR-49319) | MIC (C. difficile strains; strain NR-49321) | MIC (C. difficile strains; strain NR-49323) | MIC (C. difficile strains; strain NR-49324) | MIC (C. difficile strains; strain NR-49325) | MIC (C. difficile strains; strain RMA23691) | MIC (C. difficile strains; strain RMA23828) | MIC (C. difficile strains; strain RMA24531) | MIC (C. difficile strains; strain RMA24923) | MIC (C. difficile strains; strain RMA26675) | MIC (C. difficile strains; strain RMA27081) | MIC (C. difficile strains; strain RMA27173) | MIC (Eubacterium sp. HM-178)
>128 µg/mL: MIC [1] | MIC [3]

From patent publication US20260125371A1, “METHOD FOR INHIBITING CLOSTRIDIOIDES DIFFICILE SPORE GERMINATION” (UNIVERSITY OF NOTRE DAME DU LAC, priority 2022, published 2026)
